The record followed here is PubChem BioAssay AID179 (DTP/NCI, 2004).

As a reminder, the EC50 is the concentration at which the effect is half-maximal. What is called IC50 is the concentration that inhibits the measured activity by half. Low values mean inhibition by little substance, high ones a need for much substance.

The test system of the experiment is CEM cells HIV-1 protection, formazan growth assay. As to the kind of experiment: NCI AIDS Antiviral Assay. To be noted: for IC50: measured here: growth of uninfected CEM cells. In outline: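 Soluble formazan readout of cell growth; CEM cells ± HIV-1; 5 drug concs. ≥50% protection → retest; ≥50% again = moderately active; reproducible 100% = confirmed active.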

SMILES strings stand for the structures. “And” between values parts separate entries of the source, which are not always exact repeats. Equal values may be shown once. The source made the active and inactive calls.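 How the source made its calls: active means compounds giving half or more protection of infected cells from virus-caused growth loss, again on retest; inactive means the rest.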 A value given as a limit tells only on which side of the number the result lay.

Consider `COc1ccc2c(c1)C(=O)CC=C(C(=O)O)N2`, for which the EC50 is more than 200 µM and the IC50 is more than 200 µM.
Regarding `c1ccc(P2c3ccccc3Oc3ccccc32)cc1`, the EC50 was more than 200 µM and the half-maximal inhibitory concentration (IC50) was 35.5 µM.
`C=CCOc1c(C)cc(C#N)cc1C`: the outcome was inactive.
Consider `N#CC12C3C4CC5C6C4C1C6C(O)(C53)N2Cc1ccccc1` (stereo not drawn), for which the EC50 is more than 447 µM and the concentration for half-maximal inhibition (IC50) was found to be 257 µM.
Regarding `O=C(NNC(=O)c1ccccn1)c1ccccn1`, the EC50 was more than 200 µM and the concentration for half-maximal inhibition (IC50) is 4.68 µM.
In the case of `COC(=O)NC(Nc1ccccn1)(C(F)(F)F)C(F)(F)F`, the EC50 is more than 200 µM and the IC50 was more than 200 µM.
Take `CCCCCCSc1nc(COC(=O)NC)c(COC(=O)NC)n1C`: the EC50 is more than 200 µM and the half-maximal inhibitory concentration (IC50) is more than 200 µM.
Take `Cn1c(O)c(N=Nc2ccccc2[N+](=O)[O-])c2ccccc21`: the EC50 is more than 200 µM and the 50% inhibitory concentration (IC50) is more than 200 µM.
For `Cc1cccc(C)c1NC(=S)NC=C(C(N)=O)C(N)=O`, the EC50 is more than 200 µM and the IC50 was more than 200 µM.
On to `N#C/C=C/c1cccc(F)c1`, for which the EC50 is more than 49 µM and the IC50 was more than 49 µM.
For the molecule `CCOC(=O)c1oc2cc(O)cc(O)c2c(=O)c1-c1ccc(OC)cc1`, the EC50 was more than 200 µM and the IC50 amounted to 21.9 µM.
For `CC(C)(C)OC(=O)N[C@@H]1C(=O)N2CCCOC12` (stereo partly drawn), the outcome was inactive.
On to `CCN1CCC(CNC(=O)c2ccc(N)cc2)N1CC` (stereo not drawn), for which the EC50 is more than 200 µM and the IC50 is more than 200 µM.
For the molecule `CC(C)C(O)C(=O)C(Sc1ccccc1)C(C)C` (stereo not drawn), the EC50 was more than 355 µM and the half-maximal inhibitory concentration (IC50) was 240 µM.
Take `CC1(C)CC(=O)C(=[N+]=[N-])C(=O)C1`: the EC50 was more than 200 µM and the IC50 is more than 200 µM.
On to `O=C(Cc1ccccc1)NNc1nc(NNC(=O)c2ccncc2)nc(Nc2ccccc2)n1`, for which the EC50 is more than 200 µM and the IC50 was more than 200 µM.
Turning to `CC(=O)NNc1nc(C)c(C(/C=C/c2ccc(NC(C)=O)cc2)=N/NS(=O)(=O)c2ccc(C)cc2)s1`, the EC50 was more than 57.5 µM and the IC50 is more than 57.5 µM.
`C/C(CC(O)(C(F)(F)Cl)C(F)(F)Cl)=N\NC(N)=S`: the EC50 was more than 200 µM and the IC50 turned out to be 110 µM.
As to `CN1CCN(CCCN2c3ccccc3Sc3ccc(C(F)(F)F)cc32)CC1`, the EC50 was more than 200 µM; the IC50 was 9.55 µM and 4.37 µM.
For `Cn1cnc(CCc2ccccc2)n1`, the EC50 is more than 1120 µM and the IC50 is more than 1120 µM.
Regarding `CCCCC1c2c([nH]c3ccccc23)C2C(=O)N(c3ccc(OC)cc3)C(=O)C2C1CCC` (stereo not drawn), the EC50 is more than 200 µM and the IC50 amounted to 3.55 µM.
In the case of `NS(=O)(=O)c1ccc(CNC(=O)c2ccccc2SC(=O)CCCC[n+]2ccccc2)cc1`, the EC50 is 1.38 µM and 0.759 µM; the IC50 was 28.2 µM and 11.7 µM.
As to `COc1cc2c(cc1OC)C(=O)N1CSCC1C(=O)S2` (stereo not drawn), the EC50 was more than 50.1 µM and the half-maximal inhibitory concentration (IC50) is more than 50.1 µM.
Regarding `O=C(OCCC[P+](c1ccccc1)(c1ccccc1)c1ccccc1)c1ccccc1`, the EC50 was more than 200 µM and the IC50 is 3.39 µM.
For `C(=N\Nc1nnc(-c2nnc(N/N=C/c3ccccc3)o2)o1)/c1ccccc1`, in that order: more than 200 µM and more than 200 µM.
Consider `COc1ccc(C(OCC2OC(n3cnc4c(=O)n(Cc5ccccc5[N+](=O)[O-])nnc43)C(O)C2O)(c2ccccc2)c2ccc(OC)cc2)cc1` (stereo not drawn), for which the result was inactive.
On to `CC(=O)[CH-]C(C)=O.CC(=O)[CH-]C(C)=O.[CH2-]CCC.[CH2-]CCC.[Sn+4]`, for which the EC50 is more than 60.3 µM and the IC50 was 0.661 µM.
`[NH-]CC[NH-].[NH-]CC[NH-].[NH-]CC[NH-].[Ni+2].[O-][Cl+3]([O-])([O-])O`: the EC50 was more than 200 µM and the concentration for half-maximal inhibition (IC50) came out at 77.6 µM.
For `O=C1C2=C(c3ccccc31)C(c1ccc(F)cc1)N1C(=O)CCSC1=N2` (stereo not drawn), in that order: more than 37.2 µM and more than 37.2 µM.
Turning to `COC(=O)c1ccc2n[se]nc2c1`, the outcome was inactive.
As to `O=C1N[Se](=O)c2ccccc21` (stereo not drawn), the 50% effective concentration (EC50) is 2.69 µM and the half-maximal inhibitory concentration (IC50) was 22.9 µM.
The matching figures for `CC(C)(C)c1cc(C(O)(C(F)(F)F)C(F)(F)F)c(S)c(C(O)(C(F)(F)F)C(F)(F)F)c1`: more than 200 µM and 3.47 µM.
For `OC(C(c1ccccc1)c1ccccn1)(C(F)(F)F)C(F)(F)F` (stereo not drawn), in that order: more than 200 µM and more than 200 µM.
For `Cc1ccc(S(=O)(=O)Oc2coc(CO)cc2=O)cc1`, in that order: more than 200 µM and 12.3 µM.
With `COC(=O)c1cc2c(c3c1CC(Cc1ccccc1)C3=O)CCC2` (stereo not drawn), the EC50 is more than 200 µM and the IC50 is 33.1 µM.
Regarding `COc1ccc(C2Nc3ccccc3NC3CC(C)(C)CC(=O)C32)cc1` (stereo not drawn), the EC50 was more than 257 µM and the IC50 is 178 µM.
As for `CCCCCCCCCCCCCCCCCCOCC(CO[P+](=O)O)OCCCCCCCCCCCCCCCCCC` (stereo not drawn), the EC50 is more than 50.1 µM and the IC50 was more than 50.1 µM.
As for `Cc1c(C(=O)CSc2nc3ccc([N+](=O)[O-])cc3[nH]2)c(=O)n(-c2ccccc2)n1C`, the EC50 was more than 17 µM and the half-inhibitory concentration (IC50) is more than 17 µM.
As to `On1c(-c2ccccc2)c(-c2c(-c3ccccc3)n(O)c3ccccc23)c2ccccc21`, the EC50 is more than 316 µM and the IC50 was determined as 132 µM.
For `O=C1Nc2ccccc2N2C(=O)CCC12` (stereo not drawn), in that order: more than 1230 µM and 617 µM.
On to `CSc1nc2[nH]c(=O)c(C)nc2c(=O)[nH]1`, for which the EC50 is more than 23.4 µM and the concentration for half-maximal inhibition (IC50) is more than 23.4 µM.
As to `CCOC(=O)/C=C/n1c2ccccc2c(=O)c2cc(OC)ccc21`, the EC50 is more than 22.4 µM and the IC50 is more than 22.4 µM.
As to `C1CSCCSCCSCCSCCS1`, the EC50 was more than 17.4 µM and the IC50 was more than 17.4 µM.
For the molecule `COc1cccc(/C=N/N=C(/N)NO)c1`, the outcome was inactive.
In the case of `CN(c1ccc(Cl)cc1)S(=O)(=O)c1ccccc1[N+](=O)[O-]`, the EC50 was more than 200 µM and the half-inhibitory concentration (IC50) was 24.5 µM.
The matching figures for `Cc1ccc(C2CC(c3ccco3)=NN2c2ccccc2)o1` (stereo not drawn): more than 17.8 µM and more than 17.8 µM.
For the molecule `CC1(C)OC(CCC#N)CN1C(=O)OCc1ccccc1` (stereo not drawn), the EC50 was more than 200 µM and the IC50 was found to be 135 µM.
The matching figures for `NC(N)=NCCCC(NC(=O)OCCCCCCn1ccc(N)nc1=O)C(=O)O` (stereo not drawn): more than 200 µM and more than 200 µM.
With `CCOC(=O)C1(Br)C(c2ccccc2)NC(=O)N(C2OC(COC(=O)c3ccccc3)C(OC(=O)c3ccccc3)C2OC(=O)c2ccccc2)C1(C)Br` (stereo not drawn), the EC50 was more than 15.8 µM and the IC50 was more than 15.8 µM.
As for `C=C1CC[N+]2(CCCCCC)CCCC12` (stereo not drawn), the EC50 is more than 871 µM and the IC50 worked out at 126 µM.
On to `CC(=O)C(=[N+]=[N-])C(=O)OC(C)(C)C#N`, for which the EC50 is more than 200 µM and the IC50 is more than 200 µM.
For `CC(/C=C/c1ccccc1)=N\NC(=S)N/N=C(C)/C=C/c1ccccc1`, the EC50 is more than 200 µM and the IC50 was 4.07 µM.
In the case of `COCCN(CCNC(=O)c1cccc2c(N)c3cccc(C)c3nc12)CCOC`, the EC50 was more than 2 µM and the concentration for half-maximal inhibition (IC50) worked out at 0.269 µM.
On to `CC(Cc1ccc(O)c(O)c1)C(C)Cc1ccc(O)c(O)c1` (stereo not drawn), for which the EC50 is more than 200 µM and the IC50 came out at 8.91 µM.
